Reference: patent US20050288347A1, “Certain triazole-based compounds, compositions, and uses thereof” (priority 2004, published 2005)
“Also recorded” adds a separate entry of the source.

System: protein kinase
Test: HTS ATP-utilizing enzyme assay, off-chip mobility-shift format (Caliper HTS 250)
Assay type: biochemical, human
Settings: test compound 10 μM; active = activity greater than three-sigma from the mean of the predominately inactive population for that enzyme
Procedure, shortened: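 Kinase reactions ran 2.5 h at 20 to 22 °C with test compound at 10 μM, in a HEPES pH 7.5 master buffer containing Triton X-100 and BSA. Peptide substrate and phosphorylated product separated by mobility shift; inhibition normalized to DMSO (0%) and EDTA (100%) controls, with three-sigma thresholds for hits.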

SMILES | protein kinase against which the compound exhibits inhibitory activity (Table 3)
CCCCSc1nnc(COc2ccc(Br)cc2)n1CC [3-((4-bromophenoxy)methyl)-5-(butylthio)-4-ethyl-4H-1,2,4-triazole] | CDK2-cyclinA; also recorded: AURORA-A
CCSc1nnc(COc2ccc(CC)cc2)n1C [3-((4-ethylphenoxy)methyl)-5-(ethylthio)-4-methyl-4H-1,2,4-triazole] | AURORA-A
COc1ccc(-c2nnc(SCc3cccnc3)[nH]2)cc1 [3-((5-(4-methoxyphenyl)-4H-1,2,4-triazol-3-ylthio)methyl)pyridine] | AURORA-A; also recorded: FLT-3; also recorded: DYRK2
Clc1ccc(OCc2nnc(SCc3cccnc3)[nH]2)cc1 [3-((5-((4-chlorophenoxy)methyl)-4H-1,2,4-triazol-3-ylthio)methyl)pyridine] | FLT-3
CC(C)Cc1nnc(SCc2ccccc2)n1Cc1ccc(Cl)c(Cl)c1 [3-(benzylthio)-4-(3,4-dichlorobenzyl)-5-isobutyl-4H-1,2,4-triazole] | AURORA-A
Cc1nnc(SCc2ccccc2)n1Cc1ccc(Cl)c(Cl)c1 [3-(benzylthio)-4-(3,4-dichlorobenzyl)-5-methyl-4H-1,2,4-triazole] | GSK3-α; also recorded: GSK3-β; also recorded: c-TAK1
CCC(c1ccccc1)c1nnc(SCc2ccccc2)n1CCc1ccc(C)cc1 (stereo not drawn) [3-(benzylthio)-4-(4-methylphenethyl)-5-(1-phenylpropyl)-4H-1,2,4-triazole] | c-TAK1
Cc1nnc(SCc2ccccc2)n1Cc1ccco1 [3-(benzylthio)-4-(furan-2-ylmethyl)-5-methyl-4H-1,2,4-triazole] | GSK3-α
CCn1c(C)nnc1SCc1ccccc1 [3-(benzylthio)-4-ethyl-5-methyl-4H-1,2,4-triazole] | GSK3-α
Clc1cccc(-c2nnc(SCc3ccccc3)[nH]2)c1 [3-(benzylthio)-5-(3-chlorophenyl)-4H-1,2,4-triazole] | AURORA-A; also recorded: c-TAK1; also recorded: FLT-3
COc1ccc(-c2nnc(SCc3ccccc3)n2-c2ccccc2)cc1 [3-(benzylthio)-5-(4-methoxyphenyl)-4-phenyl-4H-1,2,4-triazole] | INSR and SYK and PAK2
C=CCCc1nnc(SCc2ccccc2)n1Cc1ccc(Cl)c(Cl)c1 [3-(benzylthio)-5-(but-3-enyl)-4-(3,4-dichlorobenzyl)-4H-1,2,4-triazole] | AURORA-A; also recorded: c-TAK1
Clc1ccc(Cn2c(SCc3ccccc3)nnc2C2CCCCC2)cc1Cl [3-(benzylthio)-5-cyclohexyl-4-(3,4-dichlorobenzyl)-4H-1,2,4-triazole] | c-TAK1
Cc1nnc(SCc2ccccc2)n1CCc1ccccc1 [3-(benzylthio)-5-methyl-4-phenethyl-4H-1,2,4-triazole] | GSK3-β; also recorded: GSK3-α; also recorded: c-TAK1
Cc1nnc(SCc2ccccc2)[nH]1 [3-(benzylthio)-5-methyl-4H-1,2,4-triazole] | AURORA-A; also recorded: DYRK2
c1ccc(CCSc2nnc(-c3ccc(-c4ccccc4)cc3)[nH]2)cc1 [3-(biphenyl-4-yl)-5-(phenethylthio)-4H-1,2,4-triazole] | AURORA-A
CCCCSc1nnc(-c2ccc(Cl)c(Cl)c2)[nH]1 [3-(butylthio)-5-(3 ,4-dichlorophenyl)-4H-1,2,4-triazole] | AURORA-A; also recorded: FLT-3; also recorded: GSK3-α
CCCCSc1nnc(-c2cccc(C(F)(F)F)c2)[nH]1 [3-(butylthio)-5-(3-(trifluoromethyl)phenyl)-4H-1,2,4-triazole] | AURORA-A; also recorded: FLT-3; also recorded: GSK3-α
CCCCSc1nnc(-c2ccc(F)cc2)[nH]1 [3-(butylthio)-5-(4-fluorophenyl)-4H-1,2,4-triazole] | AURORA-A; also recorded: FLT-3; also recorded: DYRK2
CCCCSc1nnc(-c2ccc(OC)cc2)[nH]1 [3-(butylthio)-5-(4-methoxyphenyl)-4H-1,2,4-triazole] | AURORA-A; also recorded: FLT-3; also recorded: GSK3-α
CCCCSc1nnc(-c2ccc([N+](=O)[O-])cc2)[nH]1 [3-(butylthio)-5-(4-nitrophenyl)-4H-1,2,4-triazole] | AURORA-A; also recorded: GSK3-α

SMILES | protein kinase against which the compound exhibits inhibitory activity (Table 3)
CCCCSc1nnc(COc2ccc(Cl)cc2)[nH]1 [3-(butylthio)-5-((4-chlorophenoxy)methyl)-4H-1,2,4-triazole] | FLT-3
CCCCSc1nnc(-c2ccccc2)[nH]1 [3-(butylthio)-5-phenyl-4H-1,2,4-triazole] | AURORA-A; also recorded: FLT-3; also recorded: c-TAK1
COc1ccc(-c2nnc(SCC3CCCCC3)[nH]2)cc1 [3-(cyclohexylmethylthio)-5-(4-methoxyphenyl)-4H-1,2,4-triazole] | AURORA-A; also recorded: c-TAK1
c1csc(-c2nnc(SCC3CCCCC3)[nH]2)c1 [3-(cyclohexylmethylthio)-5-(thiophen-2-yl)-4H-1,2,4-triazole] | AURORA-A; also recorded: DYRK2
Cc1cccc(-c2nnc(SCC3CCCCC3)[nH]2)c1 [3-(cyclohexylmethylthio)-5-m-tolyl-4H-1,2,4-triazole] | AURORA-A; also recorded: c-TAK1
Cc1nnc(SCC2CCCCC2)[nH]1 [3-(cyclohexylmethylthio)-5-methyl-4H-1,2,4-triazole] | AURORA-A; also recorded: GSK3-α
c1ccc(-c2nnc(SCC3CCCCC3)[nH]2)cc1 [3-(cyclohexylmethylthio)-5-phenyl-4H-1,2,4-triazole] | AURORA-A; also recorded: c-TAK1; also recorded: CHEK2
FC(F)(F)Oc1ccc(-c2nnc(SCC3CC3)[nH]2)cc1 [3-(cyclopropylmethylthio)-5-(4-(trifluoromethoxy)phenyl)-4H-1,2,4-triazole] | FLT-3; also recorded: AURORA-A
c1ccc(OCc2nnc(SCC3CC3)[nH]2)cc1 [3-(cyclopropylmethylthio)-5-(phenoxymethyl)-4H-1,2,4-triazole] | GSK3-α; also recorded: GSK3-β; also recorded: AURORA-A
CCSc1nnc(-c2ccc([N+](=O)[O-])cc2)n1C [3-(ethylthio)-4-methyl-5-(4-nitrophenyl)-4H-1,2,4-triazole] | PDGFRR-α and FYN
CCC(c1ccccc1)c1nnc(SCc2cccc3ccccc23)[nH]1 (stereo not drawn) [3-(naphthalen-1-ylmethylthio)-5-(1-phenylpropyl)-4H-1,2,4-triazole] | AURORA-A
Cc1cccc(-c2nnc(SCc3cccc4ccccc34)[nH]2)c1 [3-(naphthalen-1-ylmethylthio)-5-m-tolyl-4H-1,2,4-triazole] | AURORA-A
FC(F)(F)c1cccc(-c2nnc(SCCc3ccccc3)[nH]2)c1 [3-(phenethylthio)-5-(3-(trifluoromethyl)phenyl)-4H-1,2,4-triazole] | AURORA-A; also recorded: GSK3-α
c1ccc(CCSc2nnc(-c3cccs3)[nH]2)cc1 [3-(phenethylthio)-5-(thiophen-2-yl)-4H-1,2,4-triazole] | AURORA-A; also recorded: FLT-3
COc1ccc(-n2c(Cc3ccccc3)nnc2SC)cc1 [3-benzyl-4-(4-methoxyphenyl)-5-(methylthio)-4H-1,2,4-triazole] | AKT1
Cc1ccc(CSc2nnc(Cc3ccccc3)[nH]2)cc1 [3-benzyl-5-(4-methylbenzylthio)-4H-1,2,4-triazole] | AURORA-A
Clc1ccc(Cn2c(Cc3ccccc3)nnc2SCc2ccccc2)cc1Cl [3-benzyl-5-(benzylthio)-4-(3,4-dichlorobenzyl)-4H-1,2,4-triazole] | AURORA-A
Cc1ccc(CCn2c(Cc3ccccc3)nnc2SCc2ccccc2)cc1 [3-benzyl-5-(benzylthio)-4-(4-methylphenethyl)-4H-1,2,4-triazole] | FLT-3 and PRAK and AURORA-A
c1ccc(CCn2c(Cc3ccccc3)nnc2SCc2ccccc2)cc1 [3-benzyl-5-(benzylthio)-4-phenethyl-4H-1,2,4-triazole] | AURORA-A
CCc1nnc(SCC=C(C)C)n1CCc1ccccc1 [3-ethyl-5-(3-methylbut-2-enylthio)-4-phenethyl-4H-1,2,4-triazole] | GSK3-α
Cc1nnc(SCc2cccc3ccccc23)[nH]1 [3-methyl-5-(naphthalen-1-ylmethylthio)-4H-1,2,4-triazole] | AURORA-A; also recorded: DYRK2; also recorded: GSK3-α
